Among the data in patent publication US11932634B2 (Gilead Sciences, Inc., priority 2021, dated 2024) are IC50 and EC50 values, retold here.

Experiment [1] has as its target T1, human DGKα (Homo sapiens, UniProt P23743).
T1 construct: purchased Carna Biosciences'; inferred from the same paragraph's 'obtained from Carna Biosciences')
Briefly: DGKα Biochemical Activity Assay (ADP-Glo).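 Further: recombinant enzyme converting diacylglycerol in lipid micelles with ATP, ADP formed detected by luminescence, IC50 from a four-parameter nonlinear fit, geometric mean across experiments.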

Experiment [2] has as its system Jurkat NFκB-luciferase cells. Briefly: Jurkat NFκB-Luciferase Assay.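 Further: bioluminescence read-out normalized to DMSO basal activation and to maximum enhancement at 1 µM compound, rising signal indicating stronger T-cell activation through DGKα inhibition.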 Type of experiment: cell-based. To be noted: Homo sapiens; Jurkat NFκB-luciferase cells activated with anti-CD3 antibody (OKT3), 2.5 hrs at 37° C., One-Glo Ex; geometric mean; read-out: DGK NFKb Luciferase EC50.

T1 sequence (P23743 whole entry): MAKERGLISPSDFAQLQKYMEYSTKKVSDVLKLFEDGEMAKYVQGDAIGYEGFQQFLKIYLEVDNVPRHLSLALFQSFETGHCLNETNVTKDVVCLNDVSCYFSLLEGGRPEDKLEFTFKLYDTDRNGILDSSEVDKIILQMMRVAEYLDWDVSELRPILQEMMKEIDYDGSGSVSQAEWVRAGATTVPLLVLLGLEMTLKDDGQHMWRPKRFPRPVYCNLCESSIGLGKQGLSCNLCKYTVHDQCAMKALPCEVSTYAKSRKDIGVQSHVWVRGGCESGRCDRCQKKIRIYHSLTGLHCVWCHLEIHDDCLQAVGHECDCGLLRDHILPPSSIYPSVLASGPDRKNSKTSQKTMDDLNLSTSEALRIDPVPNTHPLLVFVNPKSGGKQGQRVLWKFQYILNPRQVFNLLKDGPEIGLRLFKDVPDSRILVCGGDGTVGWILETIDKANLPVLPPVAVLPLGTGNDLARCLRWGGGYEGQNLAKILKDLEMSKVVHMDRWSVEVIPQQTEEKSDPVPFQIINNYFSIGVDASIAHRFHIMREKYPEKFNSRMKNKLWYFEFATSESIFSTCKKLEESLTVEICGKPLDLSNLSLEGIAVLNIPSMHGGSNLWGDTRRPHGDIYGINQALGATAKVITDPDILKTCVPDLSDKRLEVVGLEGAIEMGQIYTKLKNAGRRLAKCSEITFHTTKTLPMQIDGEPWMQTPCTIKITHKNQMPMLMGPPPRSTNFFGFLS

As for `CC(C)(C#N)C#Cc1cc(F)cc(N(CC(F)F)c2nc(=O)[nH]c3ccc(F)c(F)c23)c1` [Example 69, 4-[3-[2,2-difluoroethyl-(5,6-difluoro-2-oxo-1H-quinazolin-4-yl)amino]-5-fluoro-phenyl]-2,2-dimethyl-but-3-ynenitrile], the half-maximal inhibitory concentration (IC50) (in general, the point on the concentration scale where inhibition reaches its midpoint) in experiment [1] is 26.7 nM. Also, the EC50 – broadly, the concentration at which the effect is half-maximal – in experiment [2] turned out to be 1.8 nM.

`O=c1nc(N2CCCc3c(Br)cncc32)c2c(F)cccc2[nH]1` [Example 70, 4-(5-bromo-3,4-dihydro-1,7-naphthyridin-1(2H)-yl)-5-fluoroquinazolin-2(1H)-one] had a 50% inhibitory concentration (IC50) in experiment [1] of 170 nM. In addition, in experiment [2], the concentration for a half-maximal effect (EC50) came to 40.9 nM.

`O=c1nc(N2CCCc3c(C#CC4(C(F)(F)F)CC4)cncc32)c2c(F)cccc2[nH]1` [Example 71, 5-fluoro-4-(5-((1-(trifluoromethyl)cyclopropyl)ethynyl)-3,4-dihydro-1,7-naphthyridin-1(2H)-yl)quinazolin-2(1H)-one] registered a half-inhibitory concentration (IC50) in experiment [1] of 18.4 nM. In addition, in experiment [2], the EC50 amounted to 1.43 nM.

In turn, `CC(C)(C#Cc1cncc2c1CCCN2c1nc(=O)[nH]c2cccc(F)c12)C(F)(F)F` [Example 72, 5-fluoro-4-(5-(4,4,4-trifluoro-3,3-dimethylbut-1-yn-1-yl)-3,4-dihydro-1,7-naphthyridin-1(2H)-yl)quinazolin-2(1H)-one] gave an IC50 in experiment [1] of 126 nM. In experiment [2], the EC50 turned out to be 5.71 nM.

The compound `CC(F)(F)C1(C#Cc2cncc3c2CCCN3c2nc(=O)[nH]c3cccc(F)c23)CC1` [Example 73, 4-(5-((1-(1,1-difluoroethyl)cyclopropyl)ethynyl)-3,4-dihydro-1,7-naphthyridin-1(2H)-yl)-5-fluoroquinazolin-2(1H)-one] had an IC50 in experiment [1] of 18.1 nM. Moreover, the concentration for a half-maximal effect (EC50) in experiment [2] turned out to be 1.89 nM.

Consider `O=c1nc(N2CCCc3c(C#CC4(C(F)(F)F)CC4)cncc32)c2c(F)c(F)ccc2[nH]1` [Example 74, 5,6-difluoro-4-(5-((1-(trifluoromethyl)cyclopropyl)ethynyl)-3,4-dihydro-1,7-naphthyridin-1(2H)-yl)quinazolin-2(1H)-one], for which the IC50 in experiment [1] was 2.83 nM. In experiment [2], the 50% effective concentration (EC50) turned out to be 0.222 nM.

Regarding `CC(F)(F)C1(C#Cc2cncc3c2CCCN3c2nc(=O)[nH]c3ccc(F)c(F)c23)CC1` [Example 76, 4-(5-((1-(1,1-difluoroethyl)cyclopropyl)ethynyl)-3,4-dihydro-1,7-naphthyridin-1(2H)-yl)-5,6-difluoroquinazolin-2(1H)-one], in experiment [1], half-maximal inhibition (IC50) was put at 16.1 nM. Further, in experiment [2], the EC50 was determined as 1.51 nM.

`CC(C)(C#N)C#Cc1cc(N(CC(F)F)c2nc(=O)[nH]c3ccc(F)c(F)c23)ccn1` [Example 77, 4-[4-[2,2-difluoroethyl-(5,6-difluoro-2-oxo-1H-quinazolin-4-yl)amino]-2-pyridyl]-2,2-dimethyl-but-3-ynenitrile] displayed an IC50 in experiment [1] of 14.1 nM. Moreover, the EC50 in experiment [2] is 24.2 nM.

In turn, `[2H]C([2H])([2H])n1c(=O)nc(N(CC(F)F)c2ccnc(C#CC(C)(C)C#N)c2)c2c(F)c(F)ccc21` [Example 79, 4-[4-[2,2-difluoroethyl-[5,6-difluoro-2-oxo-1-(trideuteriomethyl)quinazolin-4-yl]amino]-2-pyridyl]-2,2-dimethyl-but-3-ynenitrile] yielded an IC50 in experiment [1] of 2.95 nM. The concentration giving a half-maximal response (EC50) in experiment [2] was 11.3 nM.

For `[2H]C([2H])([2H])n1c(=O)nc(N(CC(F)F)c2ccnc(C#CC3(C(F)(F)F)CC3)c2)c2c(F)c(F)ccc21` [Example 80, 4-[2,2-difluoroethyl-[2-[2-[1-(trifluoromethyl)cyclopropyl]ethynyl]-4-pyridyl]amino]-5,6-difluoro-1-(trideuteriomethyl)quinazolin-2-one], the half-inhibitory concentration (IC50) in experiment [1] came to 3.75 nM. Also, the 50% effective concentration (EC50) in experiment [2] was determined as 1.94 nM.

In experiment [1], `CC(C)(O)C#Cc1cccc2c1CCCCN2c1nc(=O)[nH]c2cccc(F)c12` [Example 81, 5-fluoro-4-[6-(3-hydroxy-3-methyl-but-1-ynyl)-2,3,4,5-tetrahydro-1-benzazepin-1-yl]-1H-quinazolin-2-one] displayed a half-maximal inhibitory concentration (IC50) of 3.6 nM. Further, the EC50 in experiment [2] worked out at 2.5 nM.

For the compound `CC(C)(O)C#Cc1cccc2c1OCCCN2c1nc(=O)[nH]c2cccc(F)c12` [Example 82, 5-fluoro-4-[9-(3-hydroxy-3-methyl-but-1-ynyl)-3,4-dihydro-2H-1,5-benzoxazepin-5-yl]-1H-quinazolin-2-one], half-maximal inhibition in experiment [1] (IC50) required 4.42 nM. Also, the 50% effective concentration (EC50) in experiment [2] came out at 18 nM.

In turn, `[2H]C([2H])([2H])n1c(=O)nc(N2CCCOc3c(C#CC(C)(C)O)cccc32)c2c(F)cccc21` [Example 83, 5-fluoro-4-[9-(3-hydroxy-3-methyl-but-1-ynyl)-3,4-dihydro-2H-1,5-benzoxazepin-5-yl]-1-(trideuteriomethyl)quinazolin-2-one] gave an IC50 in experiment [1] of 13.1 nM. In addition, the EC50 in experiment [2] worked out at 16.2 nM.

Take `[2H]C([2H])([2H])n1c(=O)nc(N2CCCOc3c(C#CC4(C)CC4)cccc32)c2c(F)cccc21` [Example 84, 5-fluoro-4-[9-[2-(1-methylcyclopropyl)ethynyl]-3,4-dihydro-2H-1,5-benzoxazepin-5-yl]-1-(trideuteriomethyl)quinazolin-2-one]: 3.67 nM corresponded to half-maximal inhibition in experiment [1] (IC50). The EC50 in experiment [2] stood at 0.461 nM.

In experiment [1], `[2H]C([2H])([2H])n1c(=O)nc(N2CCCCc3c(C#CC(C)(C)O)cccc32)c2c(F)cccc21` [Example 85, 5-fluoro-4-[6-(3-hydroxy-3-methyl-but-1-ynyl)-2,3,4,5-tetrahydro-1-benzazepin-1-yl]-1-(trideuteriomethyl)quinazolin-2-one] registered an IC50 of 3.31 nM. Further, in experiment [2], the EC50 amounted to 4.08 nM.

The compound `[2H]C([2H])([2H])n1c(=O)nc(N2CCCCc3c(C#CC4(C)CC4)cccc32)c2c(F)cccc21` [Example 86, 5-fluoro-4-[6-[2-(1-methylcyclopropyl)ethynyl]-2,3,4,5-tetrahydro-1-benzazepin-1-yl]-1-(trideuteriomethyl)quinazolin-2-one] returned an IC50 in experiment [1] of 1.13 nM. For the same compound, in experiment [2], the EC50 was 0.133 nM.

Consider `CC(C)(O)C#Cc1cccc2c1COCCN2c1nc(=O)[nH]c2cccc(F)c12` [Example 87, 5-fluoro-4-[6-(3-hydroxy-3-methyl-but-1-ynyl)-3,5-dihydro-2H-4,1-benzoxazepin-1-yl]-1H-quinazolin-2-one], for which half-maximal inhibition in experiment [1] (IC50) required 9.58 nM. Also, the EC50 in experiment [2] came out at 30.9 nM.

Compound `CC(C)(O)C#Cc1cccc2c1COCCN2c1nc(=O)[nH]c2ccc(F)c(F)c12` [Example 88, 5,6-difluoro-4-[6-(3-hydroxy-3-methyl-but-1-ynyl)-3,5-dihydro-2H-4,1-benzoxazepin-1-yl]-1H-quinazolin-2-one] showed a half-inhibitory concentration (IC50) in experiment [1] of 4.7 nM. The concentration giving a half-maximal response (EC50) in experiment [2] was 21.9 nM.

On to `O=c1nc(N2CCOCc3c(C#CC4(C(F)(F)F)CC4)cccc32)c2c(F)c(F)ccc2[nH]1` [Example 89, 5,6-difluoro-4-[6-[2-[1-(trifluoromethyl)cyclopropyl]ethynyl]-3,5-dihydro-2H-4,1-benzoxazepin-1-yl]-1H-quinazolin-2-one], for which, in experiment [1], the IC50 was 2.26 nM. The 50% effective concentration (EC50) in experiment [2] is 0.258 nM.

In turn, `CC(C)(C#N)C#Cc1cccc2c1COCCN2c1nc(=O)[nH]c2ccc(F)c(F)c12` [Example 91, 4-[1-(5,6-difluoro-2-oxo-1H-quinazolin-4-yl)-3,5-dihydro-2H-4,1-benzoxazepin-6-yl]-2,2-dimethyl-but-3-ynenitrile] showed a 50% inhibitory concentration (IC50) in experiment [1] of 5.24 nM. Further, the concentration for a half-maximal effect (EC50) in experiment [2] is 2.67 nM.
